Assay results: paper PMC10728895, “Stapled Phd Peptides Inhibit Doc Toxin Induced Growth Arrest in Salmonella” (ACS Chemical Biology, 2023)
Non-standard residues stand in square brackets, D forms with d. Residues, ends and D or L forms follow the SMILES beside them. Nle = CCCC[C@H](N)C(=O)O

tested on: DocSTm toxin; conditions: DocSTm 5 μM, peptide 50 μM, pH 8.0; average ± SD, replicates 3-48 (Table S3)
Protocol: The thermal shift assay was performed using a Mx3005P qPCR System (Agilent) collecting fluorescence data with a temperature ramp of 25 to 95 °C. Samples were prepared in a buffer containing 20 mM K2HPO4 and 50 mM (NH4)2SO4 at pH 8.0, with a final concentration of recombinant Doc protein at 5 μM and Phd peptides at 50 μM. SYPRO Orange dye (Sigma-Aldrich, 5000X stock in DMSO) was used to monitor protein denaturation in a final concentration of 3×. The final sample volume was 20 μL. Each condition was prepared in triplicate in each independent experiment. The melting curves were plotted using GraphPad Prism 9 (GraphPad Software, USA), and the melting temperatures were obtained by fitting the sigmoidal section of the curves to a Boltzmann sigmoid function. For the calculation of thermal shifts ΔTm, the average melting temperature of free DocSTm toxin as determined in the respective peptide measurement cycles was subtracted from the average melting temperature of DocSTm in the presence of the peptide (Table S3).

| SMILES | Average Tm of DocSTm in the presence of peptide |
| --- | --- |
| CCCC[C@H](NC(=O)[C@H](Cc1c[nH]c2ccccc12)NC(C)=O)C(=O)N[C@@H](CCCNC(=N)N)C(=O)N[C@@H](CC(=O)O)C(=O)N[C@@H](CCC(=O)O)C(=O)N[C@@H](Cc1ccccc1)C(=O)N[C@@H](C)C(=O)N[C@@H](C)C(=O)N[C@H](C(=O)N[C@@H](CCCC)C(=O)N[C@@H](C)C(=O)N[C@H](C(=O)N[C@@H](Cc1c[nH]cn1)C(=O)NCC(=O)N[C@@H](CC(N)=O)C(=O)N[C@@H](CCC(=O)O)C(=O)N[C@@H](CC(C)C)C(=O)N[C@@H](CCCNC(=N)N)C(=O)N[C@@H](CCC(=O)O)C(=O)N[C@@H](CC(C)C)C(=O)N[C@@H](C)C(=O)N[C@@H](CC(=O)O)C(=O)N[C@@H](CCCCN)C(=O)O)C(C)C)[C@@H](C)CC [Peptide 2] (Ac-W[Nle]RDEFAAI[Nle]AVHGNELRELADK-OH) | 66.4 ± 0.2 °C |
| CCCC[C@H](NC(=O)[C@H](Cc1c[nH]c2ccccc12)NC(C)=O)C(=O)N[C@@H](CC(=O)O)C(=O)N[C@@H](CCCNC(=N)N)C(=O)N[C@@H](CCC(=O)O)C(=O)N[C@@H](Cc1ccccc1)C(=O)N[C@@H](C)C(=O)N[C@@H](C)C(=O)N[C@H](C(=O)N[C@@H](CCCC)C(=O)N[C@@H](C)C(=O)N[C@H](C(=O)N[C@@H](Cc1c[nH]cn1)C(=O)NCC(=O)N[C@@H](CC(N)=O)C(=O)N[C@@H](CCC(=O)O)C(=O)N[C@@H](CC(C)C)C(=O)N[C@@H](CCCNC(=N)N)C(=O)N[C@@H](CCC(=O)O)C(=O)N[C@@H](CC(C)C)C(=O)N[C@@H](C)C(=O)N[C@@H](CC(=O)O)C(=O)N[C@@H](CCCCN)C(=O)O)C(C)C)[C@@H](C)CC [Peptide 3] (Ac-W[Nle]DREFAAI[Nle]AVHGNELRELADK-OH) | 67.4 ± 0.2 °C |
| CCCC[C@H](NC(=O)[C@H](Cc1c[nH]c2ccccc12)NC(C)=O)C(=O)N[C@@H](CC(=O)O)C(=O)N[C@@H](CC(=O)O)C(=O)N[C@@H](CCCNC(=N)N)C(=O)N[C@@H](Cc1ccccc1)C(=O)N[C@@H](C)C(=O)N[C@@H](C)C(=O)N[C@H](C(=O)N[C@@H](CCCC)C(=O)N[C@@H](C)C(=O)N[C@H](C(=O)N[C@@H](Cc1c[nH]cn1)C(=O)NCC(=O)N[C@@H](CC(N)=O)C(=O)N[C@@H](CCC(=O)O)C(=O)N[C@@H](CC(C)C)C(=O)N[C@@H](CCCNC(=N)N)C(=O)N[C@@H](CCC(=O)O)C(=O)N[C@@H](CC(C)C)C(=O)N[C@@H](C)C(=O)N[C@@H](CC(=O)O)C(=O)N[C@@H](CCCCN)C(=O)O)C(C)C)[C@@H](C)CC [Peptide 4] (Ac-W[Nle]DDRFAAI[Nle]AVHGNELRELADK-OH) | 56.8 ± 2.1 °C |
| CCCC[C@H](NC(=O)[C@H](Cc1c[nH]c2ccccc12)NC(C)=O)C(=O)N[C@@H](CC(=O)O)C(=O)N[C@@H](CC(=O)O)C(=O)N[C@@H](CCC(=O)O)C(=O)N[C@@H](Cc1ccccc1)C(=O)N[C@@H](CCCNC(=N)N)C(=O)N[C@@H](C)C(=O)N[C@H](C(=O)N[C@@H](CCCC)C(=O)N[C@@H](C)C(=O)N[C@H](C(=O)N[C@@H](Cc1c[nH]cn1)C(=O)NCC(=O)N[C@@H](CC(N)=O)C(=O)N[C@@H](CCC(=O)O)C(=O)N[C@@H](CC(C)C)C(=O)N[C@@H](CCCNC(=N)N)C(=O)N[C@@H](CCC(=O)O)C(=O)N[C@@H](CC(C)C)C(=O)N[C@@H](C)C(=O)N[C@@H](CC(=O)O)C(=O)N[C@@H](CCCCN)C(=O)O)C(C)C)[C@@H](C)CC [Peptide 5] (Ac-W[Nle]DDEFRAI[Nle]AVHGNELRELADK-OH) | 69.7 ± 0.7 °C |
| CCCC[C@H](NC(=O)[C@H](Cc1c[nH]c2ccccc12)NC(C)=O)C(=O)N[C@@H](CC(=O)O)C(=O)N[C@@H](CC(=O)O)C(=O)N[C@@H](CCC(=O)O)C(=O)N[C@@H](Cc1ccccc1)C(=O)N[C@@H](C)C(=O)N[C@@H](CCCNC(=N)N)C(=O)N[C@H](C(=O)N[C@@H](CCCC)C(=O)N[C@@H](C)C(=O)N[C@H](C(=O)N[C@@H](Cc1c[nH]cn1)C(=O)NCC(=O)N[C@@H](CC(N)=O)C(=O)N[C@@H](CCC(=O)O)C(=O)N[C@@H](CC(C)C)C(=O)N[C@@H](CCCNC(=N)N)C(=O)N[C@@H](CCC(=O)O)C(=O)N[C@@H](CC(C)C)C(=O)N[C@@H](C)C(=O)N[C@@H](CC(=O)O)C(=O)N[C@@H](CCCCN)C(=O)O)C(C)C)[C@@H](C)CC [Peptide 6] (Ac-W[Nle]DDEFARI[Nle]AVHGNELRELADK-OH) | 67.3 ± 1.4 °C |
| CCCC[C@H](NC(=O)[C@H](Cc1c[nH]c2ccccc12)NC(C)=O)C(=O)N[C@@H](CC(=O)O)C(=O)N[C@@H](CC(=O)O)C(=O)N[C@@H](CCC(=O)O)C(=O)N[C@@H](Cc1ccccc1)C(=O)N[C@@H](C)C(=O)N[C@@H](C)C(=O)N[C@H](C(=O)N[C@@H](CCCC)C(=O)N[C@@H](CCCNC(=N)N)C(=O)N[C@H](C(=O)N[C@@H](Cc1c[nH]cn1)C(=O)NCC(=O)N[C@@H](CC(N)=O)C(=O)N[C@@H](CCC(=O)O)C(=O)N[C@@H](CC(C)C)C(=O)N[C@@H](CCCNC(=N)N)C(=O)N[C@@H](CCC(=O)O)C(=O)N[C@@H](CC(C)C)C(=O)N[C@@H](C)C(=O)N[C@@H](CC(=O)O)C(=O)N[C@@H](CCCCN)C(=O)O)C(C)C)[C@@H](C)CC [Peptide 7] (Ac-W[Nle]DDEFAAI[Nle]RVHGNELRELADK-OH) | 70.2 ± 0.3 °C |
| CCCC[C@H](NC(=O)[C@H](Cc1c[nH]c2ccccc12)NC(C)=O)C(=O)N[C@@H](CC(=O)O)C(=O)N[C@@H](CC(=O)O)C(=O)N[C@@H](CCC(=O)O)C(=O)N[C@@H](Cc1ccccc1)C(=O)N[C@@H](C)C(=O)N[C@@H](C)C(=O)N[C@H](C(=O)N[C@@H](CCCC)C(=O)N[C@@H](C)C(=O)N[C@@H](CCCNC(=N)N)C(=O)N[C@@H](Cc1c[nH]cn1)C(=O)NCC(=O)N[C@@H](CC(N)=O)C(=O)N[C@@H](CCC(=O)O)C(=O)N[C@@H](CC(C)C)C(=O)N[C@@H](CCCNC(=N)N)C(=O)N[C@@H](CCC(=O)O)C(=O)N[C@@H](CC(C)C)C(=O)N[C@@H](C)C(=O)N[C@@H](CC(=O)O)C(=O)N[C@@H](CCCCN)C(=O)O)[C@@H](C)CC [Peptide 8] (Ac-W[Nle]DDEFAAI[Nle]ARHGNELRELADK-OH) | 67.8 ± 0.1 °C |
| CCCC[C@H](NC(=O)[C@H](Cc1c[nH]c2ccccc12)NC(C)=O)C(=O)N[C@@H](CC(=O)O)C(=O)N[C@@H](CC(=O)O)C(=O)N[C@@H](CCC(=O)O)C(=O)N[C@@H](Cc1ccccc1)C(=O)N[C@@H](C)C(=O)N[C@@H](C)C(=O)N[C@H](C(=O)N[C@@H](CCCC)C(=O)N[C@@H](C)C(=O)N[C@H](C(=O)N[C@@H](Cc1c[nH]cn1)C(=O)NCC(=O)N[C@@H](CCCNC(=N)N)C(=O)N[C@@H](CCC(=O)O)C(=O)N[C@@H](CC(C)C)C(=O)N[C@@H](CCCNC(=N)N)C(=O)N[C@@H](CCC(=O)O)C(=O)N[C@@H](CC(C)C)C(=O)N[C@@H](C)C(=O)N[C@@H](CC(=O)O)C(=O)N[C@@H](CCCCN)C(=O)O)C(C)C)[C@@H](C)CC [Peptide 9] (Ac-W[Nle]DDEFAAI[Nle]AVHGRELRELADK-OH) | 72.3 ± 0.4 °C |
| CCCC[C@H](NC(=O)[C@H](Cc1c[nH]c2ccccc12)NC(C)=O)C(=O)N[C@@H](CC(=O)O)C(=O)N[C@@H](CC(=O)O)C(=O)N[C@@H](CCC(=O)O)C(=O)N[C@@H](Cc1ccccc1)C(=O)N[C@@H](C)C(=O)N[C@@H](C)C(=O)N[C@H](C(=O)N[C@@H](CCCC)C(=O)N[C@@H](C)C(=O)N[C@H](C(=O)N[C@@H](Cc1c[nH]cn1)C(=O)NCC(=O)N[C@@H](CC(N)=O)C(=O)N[C@@H](CCCNC(=N)N)C(=O)N[C@@H](CC(C)C)C(=O)N[C@@H](CCCNC(=N)N)C(=O)N[C@@H](CCC(=O)O)C(=O)N[C@@H](CC(C)C)C(=O)N[C@@H](C)C(=O)N[C@@H](CC(=O)O)C(=O)N[C@@H](CCCCN)C(=O)O)C(C)C)[C@@H](C)CC [Peptide 10] (Ac-W[Nle]DDEFAAI[Nle]AVHGNRLRELADK-OH) | 59.5 ± 0.3 °C |
| CCCC[C@H](NC(=O)[C@H](Cc1c[nH]c2ccccc12)NC(C)=O)C(=O)N[C@@H](CC(=O)O)C(=O)N[C@@H](CC(=O)O)C(=O)N[C@@H](CCC(=O)O)C(=O)N[C@@H](Cc1ccccc1)C(=O)N[C@@H](C)C(=O)N[C@@H](C)C(=O)N[C@H](C(=O)N[C@@H](CCCC)C(=O)N[C@@H](C)C(=O)N[C@H](C(=O)N[C@@H](Cc1c[nH]cn1)C(=O)NCC(=O)N[C@@H](CC(N)=O)C(=O)N[C@@H](CCC(=O)O)C(=O)N[C@@H](CC(C)C)C(=O)N[C@@H](CCCNC(=N)N)C(=O)N[C@@H](CCCNC(=N)N)C(=O)N[C@@H](CC(C)C)C(=O)N[C@@H](C)C(=O)N[C@@H](CC(=O)O)C(=O)N[C@@H](CCCCN)C(=O)O)C(C)C)[C@@H](C)CC [Peptide 11] (Ac-W[Nle]DDEFAAI[Nle]AVHGNELRRLADK-OH) | 73.5 ± 1.3 °C |
| CCCC[C@H](NC(=O)[C@H](Cc1c[nH]c2ccccc12)NC(C)=O)C(=O)N[C@@H](CC(=O)O)C(=O)N[C@@H](CC(=O)O)C(=O)N[C@@H](CCC(=O)O)C(=O)N[C@@H](Cc1ccccc1)C(=O)N[C@@H](C)C(=O)N[C@@H](C)C(=O)N[C@H](C(=O)N[C@@H](CCCC)C(=O)N[C@@H](C)C(=O)N[C@H](C(=O)N[C@@H](Cc1c[nH]cn1)C(=O)NCC(=O)N[C@@H](CC(N)=O)C(=O)N[C@@H](CCC(=O)O)C(=O)N[C@@H](CC(C)C)C(=O)N[C@@H](CCCNC(=N)N)C(=O)N[C@@H](CCC(=O)O)C(=O)N[C@@H](CC(C)C)C(=O)N[C@@H](CCCNC(=N)N)C(=O)N[C@@H](CC(=O)O)C(=O)N[C@@H](CCCCN)C(=O)O)C(C)C)[C@@H](C)CC [Peptide 12] (Ac-W[Nle]DDEFAAI[Nle]AVHGNELRELRDK-OH) | 68.3 ± 0.9 °C |
